Test results reported in PMC10611374, “Characterization of the Hemolytic Activity of Mastoparan Family Peptides from Wasp Venoms” (Toxins, 2023).
In brackets after ≈: the same amount, converted by molar mass. Like-named read-outs stand apart in the source and are kept apart here. Ends that are not written are not given here.

Columns and labels:
[1] = test system: human red blood cells (HRBCs); assay: Hemolytic assay on human red blood cells; format: cell-based; details: for HRBC Hemolysis (hemolysis rate at 320 μg/mL) / EC50: human red blood cells 5% (v/v) in PBS, 37 °C 1 h, OD 540 nm; for HRBC Hemolysis (hemolysis rate at 320 μg/mL): peptide 320 μg/mL (highest dose), PBS = 0%, mean of three independent experiments; for EC50: four-parameter logistic fit of mean of three independent experiments, '-' = hemolytic activity too low to calculate the EC50; for hemolytic activity on HRBCs, result in words: mutants relative to Protopolybia-MPIII
Method: (§1) Fresh human red blood cells were obtained from healthy donors and collected in a sterile blood collecting vessel covered with sodium citrate (1:9) as the anticoagulating agent. Rat red blood cells were collected from the abdominal aorta in sterile blood-collecting vessels coated with sodium citrate (1:4) after the SD rats were anaesthetized with isoflurane. Then, the cells were washed three times with phosphate-buffered saline via centrifugation (1000× g, 4 °C, 5 min) and prepared in a sterile 96-well polypropylene plate to achieve a final concentration of 5% (v/v). Twofold dilutions of the peptides were prepared in PBS to 100 μL and mixed with an equal volume of HRBCs/RRBCs suspension to final peptide concentrations ranging from 10 to 320 μg/mL. After coincubation at 37 °C for 1 h, the plate was centrifuged (2000× g, 4 °C, 20 min), and 100 μL of supernatant was taken for optical density measurements at 540 nm using a microtiter plate reader (SpectraMax 190). The HRBCs/RRBCs were assayed with PBS (blank) or 1% Triton X-100 (positive control) to represent 0% and 100% hemolysis, respectively. The percent hemolysis was calculated according to the following equation: Hemolysis Rate (%) = 100% × (Amastoparans − Ablank)/(ATriton X-100 − Ablank). Three independent experiments were performed, and the mean hemolysis rate at each dose was used to calculate the EC50 in Sigmaplot software.
(§2) Statistical analysis was performed with GraphPad Prism software (version 5.0, San Diego, CA, USA). A two-tailed Student’s t-test was used to calculate the statistical probability in this study. Differences in the data were considered to be statistically significant when the p value was equal to or less than 0.05. The curve of hemolysis induced by wasp mastoparans was generated in SigmaPlot 12.5 software, and the EC50 was calculated according to the equation (Four Parameter Logistic Curve): y = min + (max − min)/(1 + (x/EC50)^−Hillslope). The heat map of hemolytic activity of mastoparan peptide was analysed in R software which is based on the value of log2(EC50).

S. aureus = details: reported antibacterial activity; reference per peptide in Table 3; cited from earlier work
E. coli = details: reported antibacterial activity; reference per peptide in Table 3; cited from earlier work
[2] = test system: rat red blood cells (RRBCs); assay: Hemolytic assay on rat red blood cells; format: cell-based, SD rats; details: for RRBC Hemolysis (hemolysis rate at 320 μg/mL) / EC50: rat red blood cells 5% (v/v) in PBS, 37 °C 1 h, OD 540 nm; for RRBC Hemolysis (hemolysis rate at 320 μg/mL): peptide 320 μg/mL (highest dose), PBS = 0%, mean of three independent experiments; for EC50: four-parameter logistic fit of mean of three independent experiments, '-' = hemolytic activity too low to calculate the EC50
Method: as §1, §2

B. subtilis = details: reported antibacterial activity; reference per peptide in Table 3; cited from earlier work
[3] = test system: Escherichia coli and Staphylococcus aureus/Bacillus subtilis; design: method as in Table 3 refs 12, 13, 18-30; details: both on Escherichia coli and Staphylococcus aureus/Bacillus subtilis; reported values, ref Table 3 refs 12, 13, 18-30; cited from earlier work
[4] = peptide 10-320 μg/mL twofold dilutions, 1% Triton X-100 = 100%, read-out: HRBC EC50 (hemolytic activity)
[5] = peptide 10-320 μg/mL twofold dilutions, 1% Triton X-100 = 100%, read-out: RRBC EC50 (hemolytic activity)

Row | Compound | HRBC Hemolysis (hemolysis rate at 320 μg/mL) ([1]; 1% Triton X-100 = 100%) [%] | EC50 [1, 4] [µM] | MIC S. aureus (S. aureus) [µM] | MIC E. coli (E. coli) [µM] | RRBC Hemolysis (hemolysis rate at 320 μg/mL) ([2]; 1% Triton X-100 = 100%) [%] | EC50 [2, 5] [µM] | hemolytic activity on HRBCs, result in words [1] | MIC B. subtilis (B. subtilis) [µM] | hemolytic activity on RRBCs, result in words [2] | MIC (antibacterial activity, summary) [3] [µM] | EC50 ([1]; Table 2 series, read-out: HRBC EC50 (hemolytic activity), Protopolybia-MPIII and mutants) [µM] | EC50 ([2]; Table 2 series, read-out: RRBC EC50 (hemolytic activity), Protopolybia-MPIII and mutants) [µM]
1 | INLKAIAAFAKKLL-NH2 [Mastoparan-T(D)] | 15 | > 400 | 15.9 | 5.3 | 19 | > 400 | – | – | – | – | – | –
2 | LNLKGIFKKVASLLT-OH [Eumenitin] | 6 | > 400 | 6 | 6 | 4 | > 400 | almost no hemolytic activity | >60 | almost no hemolytic activity | – | – | –
3 | LNLKGLIKKVASLLN-OH [Eumenitin-R] | 5 | > 400 | 60 | 30 | 7 | > 400 | almost no hemolytic activity | – | almost no hemolytic activity | – | – | –
4 | KDLHTVVSAILQAL-NH2 [OdVP3a] | 24 | > 400 | >200 | >200 | 27 | > 400 | – | 10 | – | – | – | –
5 | INMKASAAVAKKLL-NH2 [MP-VB1] | 0 | > 400 | 2.5 | 10.3 | 7 | > 400 | – | – | – | – | – | –
6 | INWKKIAEIGKQVLSAL-NH2 [Dominulin B] | 8 | ≥ 400 | – | 1 | 0 | > 400 | – | 4 | – | ≤ 10 | – | –
7 | INWKKIAEVGGKILSSL-NH2 [Dominulin A] | 4 | ≥ 400 | – | 1 | 0 | > 400 | – | 4 | – | ≤ 10 | – | –
8 | LKLMGIVKKVLGAL-NH2 [EMP-EM1] | 21 | > 400 | 34 | 7 | 7 | > 400 | – | 68 | – | – | – | –
9 | LKLLGIVKKVLGAI-NH2 [EMP-EM2] | 8 | > 400 | 17 | 3 | 2 | > 400 | – | 68 | – | – | – | –
10 | INLKAIAALAKKLL-NH2 [Mastoparan-M] | 18 | > 400 | 3.38 | 13.5 | 28 | > 400 | – | – | – | – | – | –
11 | INWKGIAAMKKLL-NH2 [Mastoparan-like peptide 12b] | 0 | ≥ 400 | 2.5 | 10 | 0 | > 400 | – | – | – | ≤ 10 | – | –
12 | CC[C@H](C)[C@H](NC(=O)[C@H](CO)NC(=O)[C@H](CCCCN)NC(=O)[C@H](CC(C)C)NC(=O)[C@H](CCCCN)NC(=O)[C@@H](N)CC(C)C)C(=O)N[C@H](C(=O)N[C@@H](CO)C(=O)N[C@@H](Cc1c[nH]c2ccccc12)C(=O)N[C@@H](C)C(=O)N[C@@H](CCCCN)C(=O)N[C@@H](CCCCN)C(=O)N[C@H](C(=O)N[C@@H](CC(C)C)C(N)=O)C(C)C)C(C)C [Mastoparan-B] | 22 | > 400 | 60 (≈ 96.7 µg/mL) | 10 (≈ 16.1 µg/mL) | 19 | > 400 | – | – | – | – | – | –
13 | LNLKGLFKKVASLLT [Eumenitin-F] | 67 | 157 ± 2.6 | – | – | 44 | 207.1 ± 2 | – | – | – | – | – | –
14 | IDWLKLRVISVIDL-NH2 [Polybia-MP IV] | 0 | > 400 | – | – | 0 | > 400 | – | – | – | – | – | –
15 | INWKKIASIGKEVLKAL-NH2 [PMM2] | 100 | 42.6 ± 2.5 | – | – | 100 | 80.9 ± 6.4 | – | – | – | – | – | –
16 | INLKGLIKKVASLLT-OH [EpVP1] | 9 | > 400 | 100 | 25 | 0 | > 400 | almost no hemolytic activity | 5 | almost no hemolytic activity | – | – | –
17 | INWLKLGKAVSAAL-NH2 [Protopolybia-MPIII-8] | – | – | – | – | – | – | – | – | – | – | 308 ± 6.2 | 444 ± 2.1
